The results in this text go back to patent publication US11485987B2, “Methods for inducing bioorthogonal reactivity” (University of Delaware, priority 2015, dated 2022).

A short description of assay [1]: FeCl2 catalyzed oxidation of a dihydrotetrazine in the presence of H2O2. Particulars: DHTz 100 μM, 1 mM H2O2, FeCl2 0.05 mM, deionized water. The procedure:
N′-Boc PEG10 dipyridyl-dihydrotetrazine was dissolved in deionized water containing 1 mM H2O2 to give a final DHTz concentration of 100 μM. The UV absorbance at 330 nm wavelength was monitored over 10 min. Then a 5 mM FeCl2 stock solution was added and mixed quickly to get a final FeCl2 concentration of 0.05 mM., followed by continuous monitoring of UV absorbance at 330 nm over 10 min. Oxidation was rapid and complete within ˜1 minute.

A short description of assay [2]: NIR photocatalytic oxidation/Diels-Alder/payload release (methylene blue, 660 nm LED). The following applies: 60% H2O/MeOH, 660 nm LED, catalytic methylene blue, UV-vis. The procedure:
Encouraged by calculation, the inventors synthesized the compound 7, where p-nitrophenol serves as a model payload that can be readily monitored by UV and NMR (FIG. 7, panel A). To study the Diels-Alder/elimination sequence […], the inventors chose to oxidize 7 with Dess-Martin periodinane—a reagent that instantaneously oxidizes dihydrotetrazines to tetrazines. […] Upon LED irradiation (660 nm, 9.1 mW/cm^2) of 7 (28 μM) in MeOH in the presence of catalytic methylene blue (7 μM), complete oxidation/Diels-Alder/payload release within 15 minutes was observed (FIG. 7, panel B). In this photocatalytic reaction, aliquots by ESI-MS were analyzed, and intermediates 8 and 9 were not detected.
[…]. […] The reaction of 12 to produce 13 and 14 could also be promoted by irradiating a solution of 12 in 60% H2O/MeOH for 30 min with a 660 nm LED light source in the presence of catalytic amounts of methylene blue with monitoring by UV-Vis. The complete conversion to product 13 could be observed by UV-vis within 30 minutes.

On to `CC(C)(C)OC(=O)NCCOCCOCCOCCOCCOCCOCCOCCOCCOCCOCCOCCNC(=O)CCCC(=O)Nc1ccc(C2=NNC(c3ccccn3)=NN2)nc1` [N′-Boc PEG10 dipyridyl-dihydrotetrazine], for which the “time to complete oxidation” value in assay [1] is around 1 min.

Consider `COCCOCCOCCOCCOCCOCCOCCOCCOc1ccc(C2=NNC(c3ncccc3N(C)C(=O)/C=C/Oc3ccc(N(CCCl)CCCl)cc3)=NN2)nc1` [compound 12, (E)-N-(2-(6-(5-(2,5,8,11,14,17,20,23-octaoxapentacosan-25-yloxy)pyridin-2-yl)-1,4-dihydro-1,2,4,5-tetrazin-3-yl)pyridin-3-yl)-3-(4-(bis(2-chloroethyl)amino)phenoxy)-N-methylacrylamide], for which the “time to complete conversion to product 13” value in assay [2] is at most 30 min.
